System: Cyp1a2
Assay: Cytochrome P450 activity (P450-Glo Assay, induction of Cyp1a2)
Conditions: mouse iPS-derived hepatocyte-like cells kept in final maturation medium until day 42; incubation with 100 μM phenobarbital
Experimental: Cytochrome P450 activity. Cytochrome […] activity was detected by using the non-lytic method of P450-Glo™ Assay (Promega V8771). Mouse iPS cells were incubated with luminogenic substrate (Luciferin-ME) for 4 hours at 37° C. 50 μl was mixed with 50 μl Luciferin Detection Reagent in triplicate. Mean luminescence was calculated from 11 consecutive time points with 2 minutes interval. Induction of Cyp1a2 was performed by incubation with 100 μM phenobarbital.

## CCC1(c2ccccc2)C(=O)NC(=O)NC1=O [phenobarbital]
  increase of Cyp1a2 activity: 45%
